Drawing on patent US7531554B2, “4-oxoquinoline compound and use thereof as HIV integrase inhibitor” (Japan Tobacco Inc., priority 2004, dated 2009), this text covers IC50 for ten compounds.

The assay deals with T1, HIV integrase (Human immunodeficiency virus type 1 group M subtype B, UniProt P12497, F1332H).
T1 construct: HIV integrase full length gene (J. Virol., 67, 425-437 (1993)) in which phenylalanine at codon 185 was substituted by histidine; made in house; host or cells: Escherichia coli BL21(DE3)
In words: Determination of enzyme (HIV integrase) inhibitory activity. The class given is biochemical. The following applies: recombinant integrase protein (F185H), donor DNA/target DNA, absorbance at 450 nm. In a few lines:
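Full-length HIV integrase bearing F185H mutation, E. coli-expressed and purified, preincubated with compound on plate-bound biotinylated donor DNA for 60 min at 37 °C; digoxigenin-labelled target DNA then added for 10 min. Strand transfer detected by peroxidase anti-digoxigenin ELISA at 450 nm; IC50 from inhibition versus no-compound and no-enzyme controls.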

Where a name gives a salt, the structure may show the parent alone.

As for `COc1cc2c(cc1Cc1cccc(Cl)c1F)c(=O)c(C(=O)O)cn2[C@H](CO)C1CCOCC1` [Example 2-1, 6-(3-chloro-2-fluorobenzyl)-1-((1S)-2-hydroxy-1-(tetrahydropyran-4-yl)ethyl)-7-methoxy-4-oxo-1,4-dihydroquinoline-3-carboxylic acid], the IC50 (commonly the midpoint of a concentration-inhibition curve) came to 4.6 nM.
With `CC(C)[C@@H](CO)n1cc(C(=O)O)c(=O)c2cc(Cc3cccc(Cl)c3F)c(N3CCC(O)CC3)cc21` [Example 4-21, 6-(3-chloro-2-fluorobenzyl)-1-((1S)-1-(hydroxymethyl)-2-methylpropyl)-7-(4-hydroxypiperidin-1-yl)-4-oxo-1,4-dihydroquinoline-3-carboxylic acid], the IC50 came out at 6.6 nM.
The result for `CC(C)[C@@H](CO)n1cc(C(=O)O)c(=O)c2cc(Cc3cccc(Cl)c3F)c(OCc3ccc(C#N)cc3)cc21` [Example 4-56, 6-(3-chloro-2-fluorobenzyl)-7-(4-cyanobenzyloxy)-1-((1S)-1-(hydroxymethyl)-2-methylpropyl)-4-oxo-1,4-dihydroquinoline-3-carboxylic acid] reads 5 nM; that for `CC(C)[C@@H](CO)n1cc(C(=O)O)c(=O)c2cc(Cc3cccc(Cl)c3F)c(OCCN3CCOCC3)cc21` [Example 4-16, 6-(3-chloro-2-fluorobenzyl)-1-((1S)-1-(hydroxymethyl)-2-methylpropyl)-7-(2-(morpholin-4-yl)ethoxy)-4-oxo-1,4-dihydroquinoline-3-carboxylic acid], 7.9 nM; that for `CC(=O)N[C@@H]1CCN(c2cc3c(cc2Cc2cccc(Cl)c2F)c(=O)c(C(=O)O)cn3[C@H](CO)C(C)C)C1` [Example 4-27, 7-((3R)-3-(acetylamino)pyrrolidin-1-yl)-6-(3-chloro-2-fluorobenzyl)-1-((1S)-1-(hydroxymethyl)-2-methylpropyl)-4-oxo-1,4-dihydroquinoline-3-carboxylic acid], 16 nM.
Take `CC(C)[C@@H](CO)n1cc(C(=O)O)c(=O)c2cc(Cc3cccc(Cl)c3F)c(OCc3ccc(C(N)=O)cc3)cc21` [Example 4-58, 7-(4-(aminocarbonyl)benzyloxy)-6-(3-chloro-2-fluorobenzyl)-1-((1S)-1-(hydroxymethyl)-2-methylpropyl)-4-oxo-1,4-dihydroquinoline-3-carboxylic acid]: the IC50 turned out to be 4.7 nM.
As to `CC(C)[C@@H](CO)n1cc(C(=O)O)c(=O)c2cc(Cc3cccc(Cl)c3F)c(OCCCCN(C)C)cc21` [Example 4-7, 6-(3-chloro-2-fluorobenzyl)-7-(4-(dimethylamino)butoxy)-1-((1S)-1-(hydroxymethyl)-2-methylpropyl)-4-oxo-1,4-dihydroquinoline-3-carboxylic acid], the IC50 amounted to 5 nM.
For the compound `COc1cc2c(cc1Cc1cccc(Cl)c1Cl)c(=O)c(C(=O)O)cn2[C@H](CO)C(C)C` [Example 7-2, 6-(2,3-dichlorobenzyl)-1-((1S)-1-(hydroxymethyl)-2-methylpropyl)-7-methoxy-4-oxo-1,4-dihydroquinoline-3-carboxylic acid], the IC50 stood at 4.5 nM.
As for `CC(C)[C@@H](CO)n1cc(C(=O)O)c(=O)c2cc(Cc3cccc(Cl)c3F)c(O[C@H]3CCN(C)C3)cc21` [Example 4-54, 6-(3-chloro-2-fluorobenzyl)-1-((1S)-1-(hydroxymethyl)-2-methylpropyl)-7-((3S)-1-methylpyrrolidin-3-yloxy)-4-oxo-1,4-dihydroquinoline-3-carboxylic acid trifluoroacetate], the IC50 is 7.1 nM.
`CC(C)[C@@H](CO)n1cc(C(=O)O)c(=O)c2cc(Cc3cccc(Cl)c3F)c(OC3CCOCC3)cc21` [Example 4-36, 6-(3-chloro-2-fluorobenzyl)-1-((1S)-1-(hydroxymethyl)-2-methylpropyl)-4-oxo-7-(tetrahydropyran-4-yloxy)-1,4-dihydroquinoline-3-carboxylic acid]: the IC50 turned out to be 5.4 nM.
